Assay results from article PMC5854716, “Synthesis, molecular docking, ctDNA interaction, DFT calculation and evaluation of antiproliferative and anti-Toxoplasma gondii activities of 2,4-diaminotriazine-thiazole derivatives” (Medicinal Chemistry Research, 2018).

How the values were obtained:
[1] = Cell viability assay (MTT), L929; format: cell-based, Mus musculus; conditions: mouse, L929 fibroblast cells
Outline: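 L929 and VERO cells seeded at 1.0 × 10^4/well, attached 24 h, then exposed 24 h to compounds at 0.9–125.00 μg/ml (from DMSO stock). MTT (1 mg/ml) added for 2 h at 37 °C, formazan dissolved in DMSO, OD read at 550 nm. Viability expressed as percentage of 2.5% DMSO-treated controls; triplicate.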

[2] = system: biphenotypic B myelomonocytic leukemia MV4-11 cells; assay: In vitro antiproliferative assay (MTT), MV4-11; format: cell-based, human; conditions: mean ± SD; for IC50: Homo sapiens, MV4-11, 72 h exposure; for IC50 MV4-11: 72 h exposure
Protocol: Biphenotypic B myelomonocytic leukemia MV4-11, human lung carcinoma A549, human breast carcinoma MCF-7, and normal mouse fibroblast BALB/3T3 cells were obtained from American Type Culture Collection (Rockville, Maryland, USA). All the cell lines are being maintained at the Institute of Immunology and Experimental Therapy, Wroclaw, Poland. MV4-11 cells were cultured in RPMI 1640 medium (Gibco, UK) with 2 mM L-glutamine adjusted to contain 1.0 mM sodium pyruvate, and 10% fetal bovine serum (FBS) (all from Sigma-Aldrich, Germany). A549 cells were cultured in RPMI 1640+ Opti-MEM (1:1) (both from Gibco, UK), MCF-7 cells in Eagle medium (IIET, Wroclaw, Poland), BALB/3T3 in Dulbecco medium (IIET, Poland) supplemented with 2 mM L-glutamine and 1.0 mM sodium pyruvate, 10% fetal bovine serum (all from Sigma-Aldrich, Germany). The MCF-7 cell culture was supplemented with 0.8 mg/l of insulin (Sigma-Aldrich, Germany). All culture media were supplemented with 100 units/ml penicillin, and 100 µg/ml streptomycin (both from Polfa Tarchomin S.A., Poland). All cell lines were grown at 37 °C with 5% CO2 humidified atmosphere (Łączkowski et al. [2014], [2016a]).
Prior to usage, the compounds were dissolved in DMSO and culture medium (1: 9) to the concentration of 1 mg/ml, and subsequently diluted in culture medium to reach the required concentrations (0.1, 1, 10, and 100 µg/ml) (Łączkowski et al. [2014], [2016a]).
Twenty-four hours prior to the addition of the tested compounds, the cells counted using Burker hemocytometer were plated in 96-well plates (Sarstedt, Germany) at a density of 1 × 10^4 cells per well. The assay was performed after 72 h of exposure to varying concentrations of the tested agents. The in vitro cytotoxic effect of all agents was examined using the SRB assay for adherent cells (A549, MCF-7, and BALB/3T3) or MTT assay for leukemia cells (MV4-11) as described previously. The results were calculated as an inhibitory concentration 50 (IC50)—the concentration of tested agent which inhibits proliferation of 50% of the cancer cell population. Each compound in each concentration was tested in triplicate in a single experiment, which was repeated 3–7 times (Rubinstein et al. [1990]; Bramson et al. [1995]).
Twenty microliter of MTT solution (MTT: 3-(4,5-dimethylthiazol-2-yl)-2,5-diphenyltetrazolium bromide, stock solution: 5 mg/ml) was added to each well and incubated for 4 h. After the incubation time was complete, 80 µl of the lysis mixture was added to each well (lysis mixture: 225 ml dimethylformamide, 67.5 g sodium dodecyl sulfate and 275 ml of distilled water). The optical densities of the samples were read after 24 h on a Synergy H4 (BioTek Instruments USA) photometer microtiter plate reader at 570 nm (Sidoryk et al. [2012]). All of chemicals were obtained from Sigma-Aldrich, Germany.

Structure (SMILES)	IC50 [2]	melting point	IC50 MV4-11 [2]	viability at 24 h, 0.9 µg/ml [1]	viability at 24 h, 1.8 µg/ml [1]	viability at 24 h, 3.9 µg/ml [1]	viability at 24 h, 7.8 µg/ml [1]	viability at 24 h, 15.6 µg/ml [1]	viability at 24 h, 31.2 µg/ml [1]	viability at 24 h, 62.5 µg/ml [1]	viability at 24 h, 125 µg/ml [1]
C/C(=N\Nc1nc(-c2ccc(Cl)cc2)cs1)c1ccc(Nc2nc(N)nc(N)n2)cc1 [Compound 4b, (E)-N^2-(4-(1-(2-(4-(4-chlorophenyl)-1,3-thiazol-2-yl)hydrazinylidene)ethyl)phenyl)-1,3,5-triazine-2,4,6-triamine]	1.89 ± 0.45 µg/mL	237 to 239 °C		94.8%	95.3%	99.4%	99.4%	110%	113%	119%	118%
C/C(=N\Nc1nc(-c2cc3ccccc3oc2=O)cs1)c1ccc(Nc2nc(N)nc(N)n2)cc1 [Compound 4f, (E)-3-(2-(2-(1-(4-(4,6-diamino-1,3,5-triazin-2-yloamino)phenyl)ethylidene)hydrazinyl)thiazol-4-yl)-2H-chromen-2-on]			3.08 ± 0.851 µg/mL								
C/C(=N\Nc1nc(-c2ccc(Br)cc2)cs1)c1ccc(Nc2nc(N)nc(N)n2)cc1 [Compound 4d, (E)-N^2-(4-(1-(2-(4-(4-bromophenyl)-1,3-thiazol-2-yl)hydrazinylidene)ethyl)phenyl)-1,3,5-triazine-2,4,6-triamine]	2.14 ± 0.464 µg/mL	226 to 230 °C		99.9%	97.8%	99.9%	93.7%	108%	113%	115%	113%
C/C(=N\Nc1nc(-c2ccc(F)cc2)cs1)c1ccc(Nc2nc(N)nc(N)n2)cc1 [Compound 4a, (E)-N^2-(4-(1-(2-(4-(4-fluorophenyl)-1,3-thiazol-2-yl)hydrazinylidene)ethyl)phenyl)-1,3,5-triazine-2,4,6-triamine]	3.21 ± 0.454 µg/mL	223 to 225 °C		96.6%	101%	105%	99%	102%	111%	115%	111%
C/C(=N\Nc1nc(-c2ccc(I)cc2)cs1)c1ccc(Nc2nc(N)nc(N)n2)cc1 [Compound 4e, (E)-N^2-(4-(1-(2-(4-(4-iodophenyl)-1,3-thiazol-2-yl)hydrazinylidene)ethyl)phenyl)-1,3,5-triazine-2,4,6-triamine]	1.13 ± 0.25 µg/mL	248 to 251 °C		96%	97.6%	99.1%	88.8%	98.8%	108%	109%	101%
C/C(=N\Nc1nc(-c2ccc(C)cc2)cs1)c1ccc(Nc2nc(N)nc(N)n2)cc1 [Compound 4c, (E)-N^2-(4-(1-(2-(4-(4-tolyl)-1,3-thiazol-2-yl)hydrazinylidene)ethyl)phenyl)-1,3,5-triazine-2,4,6-triamine]	3.09 ± 0.726 µg/mL	231 to 233 °C		98.2%	95.5%	98.2%	92.9%	102%	105%	106%	118%

Further lines, with some results ahead:

IC50 [2]	melting point	IC50 MV4-11 [2]	Structure (SMILES)	viability at 24 h, 0.9 µg/ml [1]	viability at 24 h, 1.8 µg/ml [1]	viability at 24 h, 3.9 µg/ml [1]	viability at 24 h, 7.8 µg/ml [1]	viability at 24 h, 15.6 µg/ml [1]	viability at 24 h, 31.2 µg/ml [1]	viability at 24 h, 62.5 µg/ml [1]	viability at 24 h, 125 µg/ml [1]
3.01 ± 0.476 µg/mL			C/C(=N\Nc1nc(-c2ccc([N+](=O)[O-])cc2)cs1)c1ccc(Nc2nc(N)nc(N)n2)cc1 [Compound 4h, (E)-N^2-(4-(1-(2-(4-(4-nitrophenyl)-1,3-thiazol-2-yl)hydrazinylidene)ethyl)phenyl)-1,3,5-triazine-2,4,6-triamine]	100%	98.5%	100%	105%	105%	114%	118%	104%
1.37 ± 0.186 µg/mL			C/C(=N\Nc1nc(-c2ccc(Cl)c(Cl)c2)cs1)c1ccc(Nc2nc(N)nc(N)n2)cc1 [Compound 4i, (E)-N^2-(4-(1-(2-(4-(3,4-dichlorophenyl)-1,3-thiazol-2-yl)hydrazinylidene)ethyl)phenyl)-1,3,5-triazine-2,4,6-triamine]	101%	97.9%	96.1%	100%	98.1%	108%	100%	
2.3 ± 0.97 µg/mL	> 300 °C		C/C(=N\Nc1nc(-c2ccccc2)cs1)c1ccc(Nc2nc(N)nc(N)n2)cc1 [Compound 4k, (E)-N^2-(4-(1-(2-(4-phenyl-1,3-thiazol-2-yl)hydrazinylidene)ethyl)phenyl)-1,3,5-triazine-2,4,6-triamine]	109%	107%	106%	101%	106%	111%	116%	130%
		1.73 ± 0.091 µg/mL	C/C(=N\Nc1nc(-c2ccc(NS(C)(=O)=O)cc2)cs1)c1ccc(Nc2nc(N)nc(N)n2)cc1 [Compound 4j, (E)-N-(4-(2-(2-(1-(4-(4,6-diamino-1,3,5-triazin-2-yloamino)phenyl)ethylidene)hydrazinyl)thiazol-4-yl)phenyl)-methanesulfonamide]								
		2.76 ± 0.521 µg/mL	CC(=O)Nc1ccc(-c2csc(N/N=C(\C)c3ccc(Nc4nc(N)nc(N)n4)cc3)n2)cc1 [Compound 4g, (E)-N^2-(4-(2-(2-(1-(4-(4,6-diamino-1,3,5-triazin-2-yloamino)phenyl)ethylidene)hydraziny)thiazol-4-yl)phenyl)-acetamide]								
